{"source": "patent US9387263B2", "about": "“RbAp48 transgenic mice for drug discovery in age-related memory decline” (THE TRUSTEES OF COLUMBIA UNIVERSITY IN THE CITY OF NEW YORK, priority 2011, dated 2016)", "tested_on": "RbAp48 mRNA expression in hippocampus", "assay": "RbAp48 transcript in situ hybridization in adult hippocampus after injection of kainic acid (synaptic stimulation)", "type": "in vivo, mouse", "details": "wild type mice", "experimental": "FIG. 14: RbAp48 transcript distribution in the adult hippocampus of wild type mice in either control conditions (injection of saline) of after injection of kainic acid (synaptic stimulation). Coronal cryosections were hybridized with radio-labelled oligonucleotides specific for RbAp48. […] This upregulation of RbAp48 lasted for four hours (8 hr to 12 hr time points).\nRNA In Situ Hybridizations: RNA in situ hybridizations were performed on fresh frozen adult brain slices using 40-45 base anti-sense oligonucleotides^37. The oligonucleotides used for the detection of RbAp48-DN-Flag and RbAp48 transcripts can be found in supplemental table 3.\nTreatment with Kainic Acid Kainic acid (Sigma) was injected intraperitoneally as previously described^42\nBecause RbAp48 regulates histone acetylation, it was explored whether RbAp48-DN affects the steady state levels of histone acetylation in the hippocampal formation using immunohistochemistry and image quantification analysis to measure histone acetylation. The initial focus was on the DG. […] To test for spatial specificity, the CA1 subregion was examined and no significant reduction in histone acetylation (FIGS. 12c & 12d) was found. As with behavior and fMRI, the effect of RbAp48-DN on H2B and H4 acetylation in the adult DG was reversed when its expression was turned off (mice on dox; FIGS. 12c & 12d).", "data": [{"compound": "C=C(C)[C@H]1CN[C@H](C(=O)O)[C@H]1CC(=O)O", "note": "[kainic acid]", "values": [{"measurement": "Duration of upregulation of RbAp48", "setting": "dentate gyrus, 8 hr to 12 hr time points after kainic acid", "result": "four"}, {"measurement": "Expression of RbAp48 (transcript distribution in adult hippocampus)", "setting": "intraperitoneal kainic acid vs saline, eight hours after application, radio-labelled oligonucleotide in situ hybridization", "result": "upregulated specifically in the dentate gyrus"}]}]}
